How the values were obtained:
[1] = target: T1, thromboxane synthetase (Homo sapiens, UniProt P24557); assay: in vitro inhibition of thromboxane synthetase (TxB2/PGF2 α+β ratio from 14C-arachidonic acid); assay type: biochemical; settings: 30 minutes incubation
T1 construct: crude microsomal preparation of thromboxane synthetase from lysed human platelets; from tissue; host or cells: lysed human platelets, crude microsomal preparation
T1 sequence (P24557 1-533): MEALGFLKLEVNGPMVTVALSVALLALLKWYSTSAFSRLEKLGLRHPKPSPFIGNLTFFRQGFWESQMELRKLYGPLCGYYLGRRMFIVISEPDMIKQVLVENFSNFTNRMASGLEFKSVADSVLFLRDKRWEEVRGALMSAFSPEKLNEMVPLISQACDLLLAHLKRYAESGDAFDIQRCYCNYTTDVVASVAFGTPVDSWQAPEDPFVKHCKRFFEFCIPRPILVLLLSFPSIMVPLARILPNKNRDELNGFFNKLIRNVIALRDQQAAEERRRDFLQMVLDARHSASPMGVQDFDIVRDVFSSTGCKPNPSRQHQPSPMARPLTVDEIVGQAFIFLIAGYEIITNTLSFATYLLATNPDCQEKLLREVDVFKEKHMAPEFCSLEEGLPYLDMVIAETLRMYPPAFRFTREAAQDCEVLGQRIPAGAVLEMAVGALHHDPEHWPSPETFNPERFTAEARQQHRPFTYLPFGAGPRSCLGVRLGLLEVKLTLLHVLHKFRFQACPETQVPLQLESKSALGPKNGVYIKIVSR
Method: Res. Comm. 74, 1432 (1977); the testing procedure is as follows:
^14 C-Arachidonic acid is incubated with an enzyme preparation consisting of solubilized and partially purified prostaglandin cyclo-oxygenase from sheep seminal vesicles and a crude microsomal preparation of thromboxane synthetase from lysed human platelets. The test compound (dissolved in buffer, or if necessary, in a small amount of ethanol) is added to the incubation medium. At the end of the incubation period (30 minutes), Prostaglandin E2 (PGE2) is reduced to a mixture of Prostaglandin F2 α and F2 β [PGF2 (α+β)] by addition of sodium borohydride. The radioactive products and excess substrate are extracted into ethyl acetate; the extract is evaporated to dryness; the residue is dissolved in acetone, spotted on thin-layer plates and chromatographed in the solvent system toluene: acetone: glacial acetic acid (100 volumes: 100 volumes: 3 volumes). The radioactive zones are located; those corresponding to Thromboxane B2 (TxB2) and PGF2 α+β are transferred to liquid scintillation vials and counted. The ratio of counts for TxB2 /PGF2 α+β is calculated for each concentration of test compound and IC50 values are determined graphically as the concentration of test compound at which the ratio of TxB2 /PGF2 α+β is reduced to 50% of the control value.

[2] = tested on: thromboxane B2; assay: in vivo reduction of plasma thromboxane B2 in rats after ionophore A23187; settings: rat, oral dose of 5 mg/Kg or lower; ionophore A23187 0.5 mg/kg i.v. two hours after dosing
Method: (§1) The inhibition of the synthesis and the reduction of plasma levels of thromboxane is determined in vivo or administration to rats in the following manner (as adapted from the procedures described by Tai et al. in Anal. Biochem. 87:343, 1978 and by Salmon in Prostaglandins 15:383, 1978):
(§2) Rats are dosed with vehicle or test drug and injected intravenously with ionophore A23187 (0.5 mg/kg) two hours later. Blood is collected for analysis 2 minutes after the ionophore injection. A single aliquot of each plasma sample is assayed for thromboxane B2 and another aliquot for 6-keto-PGF1 α (the stable metabolite of prostacyclin, by radioimmunoassay.

[3] = tested on: 6-keto-PGF1 α; assay: in vivo plasma level of 6-keto-PGF1 α (prostacyclin metabolite) in rats after ionophore A23187; settings: rat; ionophore A23187 0.5 mg/kg i.v. two hours after dosing
Method: as §1, §2

Row | SMILES | IC50 [1] [nM] | reduction of the plasma concentration of thromboxane B2 [2] | increase in the plasma level of the prostacyclin metabolite 6-keto-PGF1 α [3]
1 | c1cc(CCCCc2nnn[nH]2)n2cncc2c1 [5-[4-(5-tetrazolyl)butyl]-imidazo[1,5-a]pyridine] | ~10 | over 50% | significant increase
2 | O=C(CCCCCc1cccc2cncn12)NO [5-[5-(hydroxycarbamoyl)pentyl]-imidazo[1,5-a]-pyridine] | ~300 | – | –
3 | O=C(O)CCCCCc1c(OCc2ccccc2)ccc2cncn12 [6-benzyloxy-5-(5-carboxypentyl)imidazo[1,5-a]pyridine] | ~3 | – | –

— patent US4470986A, “Certain imidazo (1,5-A) pyridine aliphatic carboxylic acid derivatives and their use as selective thromboxane inhibitors” (Ciba-Geigy Corporation, priority 1982, dated 1984)
